The results in this text go back to patent US9133181B2, “Substituted 6-(4-hydroxy-phenyl)-1H-pyrazolo[3,4-b]pyridine derivatives as kinase inhibitors” (SANOFI, priority 2012, dated 2015).

As a reminder, the inhibition is the change of the read-out against control, counted positive when it falls.

In this assay the target is T1, human full-length recombinant PKC βII (Homo sapiens, UniProt P05771).
T1 construct: Active human full-length recombinant PKC βII; purchased Invitrogen GmbH, Darmstadt, Germany
T1 sequence (P05771 1-673 isoform P05771-2): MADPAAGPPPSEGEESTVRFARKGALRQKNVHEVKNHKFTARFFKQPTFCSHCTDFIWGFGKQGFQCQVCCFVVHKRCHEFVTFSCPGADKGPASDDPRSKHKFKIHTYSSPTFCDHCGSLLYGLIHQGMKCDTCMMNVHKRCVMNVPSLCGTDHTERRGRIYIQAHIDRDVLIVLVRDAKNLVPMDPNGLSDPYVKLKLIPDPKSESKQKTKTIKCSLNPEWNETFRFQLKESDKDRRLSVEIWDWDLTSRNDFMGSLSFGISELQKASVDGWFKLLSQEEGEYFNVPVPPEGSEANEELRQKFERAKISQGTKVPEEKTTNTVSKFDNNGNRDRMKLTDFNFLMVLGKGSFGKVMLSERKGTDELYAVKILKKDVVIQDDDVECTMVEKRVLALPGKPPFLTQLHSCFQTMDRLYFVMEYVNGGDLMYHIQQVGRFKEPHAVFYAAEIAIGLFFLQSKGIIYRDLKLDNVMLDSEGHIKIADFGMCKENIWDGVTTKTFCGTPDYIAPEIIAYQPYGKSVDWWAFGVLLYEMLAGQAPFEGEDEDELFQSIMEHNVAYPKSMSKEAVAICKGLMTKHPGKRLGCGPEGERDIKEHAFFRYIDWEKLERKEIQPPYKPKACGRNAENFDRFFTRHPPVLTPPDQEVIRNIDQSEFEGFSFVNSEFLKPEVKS
As to the kind of experiment: Determination of PKC βII inhibition (Caliper mobility shift kinase assay). The conditions noted are these: final compound concentration 1.14 μM (±0.15 μM); 60 min incubation at 32° C. It counts as biochemical. Summed up:
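Compound was tested at a final 1.14 µM (±0.15 µM), with % inhibition derived from the product/(substrate+product) peak ratio on a Caliper mobility-shift read-out. Full-length PKC βII was activated by CaCl2, PS and DAG in pH 7.4 Hepes/MgCl2. Peptide and ATP were at 3 µM and 120 µM in the added mix. Incubation was 60 min at 32 °C.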
On to `CC[C@@H]1CNC(C)(C)CN1Cc1cc(-c2ccc(O)cc2F)nc2[nH]nc(C)c12` [Example 144, 4-[4-((R)-2-Ethyl-5,5-dimethyl-piperazin-1-ylmethyl)-3-methyl-1H-pyrazolo[3,4-b]pyridin-6-yl]-3-fluoro-phenol], for which the inhibition at 1.14 µM came to 98%.

On to `Cc1n[nH]c2nc(-c3ccc(O)cc3F)cc(CN3CC4(CCCC4)NC[C@@H]3C)c12` [Example 137, 3-Fluoro-4-[3-methyl-4-((S)-8-methyl-6,9-diaza-spiro[4.5]dec-9-ylmethyl)-1H-pyrazolo[3,4-b]pyridin-6-yl]-phenol], for which the inhibition at 1.14 µM was found to be 98%. Consider `Cc1n[nH]c2nc(-c3ccc(O)cc3)cc(CN3CCNCC34CC4)c12` [Example 40, 4-[4-(4,7-Diaza-spiro[2.5]oct-4-ylmethyl)-3-methyl-1H-pyrazolo[3,4-b]pyridin-6-yl]-phenol], for which the inhibition at 1.14 µM was 97%.

Consider `Cc1n[nH]c2nc(-c3ccc(O)cc3F)cc(CN3C[C@@H](C)NC[C@@H]3C)c12` [Example 27, 4-[4-((2S,5R)-2,5-Dimethyl-piperazin-1-ylmethyl)-3-methyl-1H-pyrazolo[3,4-b]pyridin-6-yl]-3-fluoro-phenol], for which the inhibition at 1.14 µM was determined as 83%. Regarding `Cc1n[nH]c2nc(-c3ccc(O)cc3F)cc(CN3CCNCC3(C)C)c12` [Example 26, 4-[4-(2,2-Dimethyl-piperazin-1-ylmethyl)-3-methyl-1H-pyrazolo[3,4-b]pyridin-6-yl]-3-fluoro-phenol], the inhibition at 1.14 µM amounted to 92%.

Turning to `Cc1n[nH]c2nc(-c3ccc(O)cc3)cc(CN3C[C@@H](C)NCC3(C)C)c12` [Example 132, 4-[3-Methyl-4-((R)-2,2,5-trimethyl-piperazin-1-ylmethyl)-1H-pyrazolo[3,4-b]pyridin-6-yl]-phenol], the inhibition at 1.14 µM was found to be 97%. The same measure for `Cc1n[nH]c2nc(-c3ccc(O)cc3F)cc(CN3CCNC[C@H]3c3cccc(F)c3)c12` [Example 120, 3-Fluoro-4-{4-[(R)-2-(3-fluoro-phenyl)-piperazin-1-ylmethyl]-3-methyl-1H-pyrazolo[3,4-b]pyridin-6-yl}-phenol]: 102%; for `Cc1n[nH]c2nc(-c3ccc(O)cc3F)cc(CN3C[C@H](C(C)C)NCC3(C)C)c12` [Example 129, 3-Fluoro-4-[4-((S)-5-isopropyl-2,2-dimethyl-piperazin-1-ylmethyl)-3-methyl-1H-pyrazolo[3,4-b]pyridin-6-yl]-phenol]: 97%; for `COCCC(=O)N1CC(C)(C)N(Cc2cc(-c3ccc(O)cc3F)nc3[nH]nc(C)c23)CC1(C)C` [Example 76, 1-{4-[6-(2-Fluoro-4-hydroxy-phenyl)-3-methyl-1H-pyrazolo[3,4-b]pyridin-4-ylmethyl]-2,2,5,5-tetramethyl-piperazin-1-yl}-3-methoxy-propan-1-one]: 95%. In the case of `CCC1(C)CN(Cc2cc(-c3ccc(O)cc3)nc3[nH]nc(C)c23)C(C)(C)CN1` (stereo not shown) [Example 57, 4-[4-(5-Ethyl-2,2,5-trimethyl-piperazin-1-ylmethyl)-3-methyl-1H-pyrazolo[3,4-b]pyridin-6-yl]-phenol], the inhibition at 1.14 µM is 93%. The same measure for `Cc1n[nH]c2nc(-c3ccc(O)cc3F)cc(CN3C[C@@H](C)NC[C@@H]3C(F)(F)F)c12` [Example 152, 3-Fluoro-4-[3-methyl-4-((2R,5R)-5-methyl-2-trifluoromethyl-piperazin-1-ylmethyl)-1H-pyrazolo[3,4-b]pyridin-6-yl]-phenol]: 93%. `Cc1n[nH]c2nc(-c3ccc(O)cc3F)cc(CN3C[C@H](c4ccccc4)NC[C@H]3C)c12` [Example 100, 3-Fluoro-4-[3-methyl-4-((2R,5S)-2-methyl-5-phenyl-piperazin-1-ylmethyl)-1H-pyrazolo[3,4-b]pyridin-6-yl]-phenol]: the inhibition at 1.14 µM came to 86%. For the molecule `CCC1CNC(C)(C)CN1Cc1cc(-c2ccc(O)cc2)nc2[nH]nc(C)c12` (stereo not shown) [Example 53, 4-[4-(2-Ethyl-5,5-dimethyl-piperazin-1-ylmethyl)-3-methyl-1H-pyrazolo[3,4-b]pyridin-6-yl]-phenol], the inhibition at 1.14 µM turned out to be 99%. For the molecule `Cc1n[nH]c2nc(-c3ccc(O)cc3F)cc(CN3C[C@@H](C)NCC3(C)C)c12` [Example 116, 3-Fluoro-4-[3-methyl-4-((R)-2,2,5-trimethyl-piperazin-1-ylmethyl)-1H-pyrazolo[3,4-b]pyridin-6-yl]-phenol], the inhibition at 1.14 µM is 95%.

For `Cc1n[nH]c2nc(-c3ccc(O)cc3)cc(CN3CCNCC3c3ccc(F)cc3)c12` (stereo not shown) [Example 42, 4-{4-[2-(4-Fluoro-phenyl)-piperazin-1-ylmethyl]-3-methyl-1H-pyrazolo[3,4-b]pyridin-6-yl}-phenol], the inhibition at 1.14 µM was 94%.

Consider `CCc1n[nH]c2nc(-c3ccc(O)cc3)cc(CN3CCNCC3)c12` [Example 96, 4-(3-Ethyl-4-piperazin-1-ylmethyl-1H-pyrazolo[3,4-b]pyridin-6-yl)-phenol], for which the inhibition at 1.14 µM worked out at 74%. The same measure for `Cc1n[nH]c2nc(-c3ccc(O)cc3F)cc(CN3CC(C)(C)NCC3(C)C)c12` [Example 28, 3-Fluoro-4-[3-methyl-4-(2,2,5,5-tetramethyl-piperazin-1-ylmethyl)-1H-pyrazolo[3,4-b]pyridin-6-yl]-phenol]: 97%; for `Cc1n[nH]c2nc(-c3ccc(O)cc3F)cc(CN3CCNCC3c3ccc(C(C)C)cc3)c12` (stereo not shown) [Example 2, 3-Fluoro-4-{4-[2-(4-isopropyl-phenyl)-piperazin-1-ylmethyl]-3-methyl-1H-pyrazolo[3,4-b]pyridin-6-yl}-phenol]: 65%. To `CC[C@H]1CNC(C)(C)CN1Cc1cc(-c2ccc(O)cc2F)nc2[nH]nc(C)c12` [Example 143, 4-[4-((S)-2-Ethyl-5,5-dimethyl-piperazin-1-ylmethyl)-3-methyl-1H-pyrazolo[3,4-b]pyridin-6-yl]-3-fluoro-phenol] belongs 101%; to `Cc1n[nH]c2nc(-c3ccc(O)cc3F)cc(CN3CC(C)(C)N(C[C@H](O)CO)CC3(C)C)c12` [Example 73, (S)-3-{4-[6-(2-Fluoro-4-hydroxy-phenyl)-3-methyl-1H-pyrazolo[3,4-b]pyridin-4-ylmethyl]-2,2,5,5-tetramethyl-piperazin-1-yl}-propane-1,2-diol], 97%. Take `Cc1n[nH]c2nc(-c3ccc(O)cc3F)cc(CN3C[C@@](C)(C4CC4)NCC3(C)C)c12` [Example 149, 4-[4-((R)-5-Cyclopropyl-2,2,5-trimethyl-piperazin-1-ylmethyl)-3-methyl-1H-pyrazolo[3,4-b]pyridin-6-yl]-3-fluoro-phenol]: the inhibition at 1.14 µM was found to be 98%. `Cc1n[nH]c2nc(-c3ccc(O)cc3)cc(CN3CC(C)(C)NCC3C)c12` (stereo not shown) [Example 52, 4-[3-Methyl-4-(2,5,5-trimethyl-piperazin-1-ylmethyl)-1H-pyrazolo[3,4-b]pyridin-6-yl]-phenol]: the inhibition at 1.14 µM is 91%.

Regarding `Cc1n[nH]c2nc(-c3ccc(O)cc3F)cc(CN3CC(C)(C)NC[C@H]3C(C)C)c12` [Example 134, 3-Fluoro-4-[4-((R)-2-isopropyl-5,5-dimethyl-piperazin-1-ylmethyl)-3-methyl-1H-pyrazolo[3,4-b]pyridin-6-yl]-phenol], the inhibition at 1.14 µM is 102%. Consider `Cc1n[nH]c2nc(-c3ccc(O)cc3)cc(CN3CC(C)(C)NC[C@H]3C)c12` [Example 140, 4-[3-Methyl-4-((R)-2,5,5-trimethyl-piperazin-1-ylmethyl)-1H-pyrazolo[3,4-b]pyridin-6-yl]-phenol], for which the inhibition at 1.14 µM turned out to be 98%. To `Cc1n[nH]c2nc(-c3ccc(O)cc3F)cc(CN3CCNC[C@@H]3c3ccc(C(C)C)cc3)c12` [Example 101, 3-Fluoro-4-{4-[(S)-2-(4-isopropyl-phenyl)-piperazin-1-ylmethyl]-3-methyl-1H-pyrazolo[3,4-b]pyridin-6-yl}-phenol] belongs 52%; to `Cc1n[nH]c2nc(-c3ccc(O)cc3F)cc(CN3CCNCC34CC4)c12` [Example 14, 4-[4-(4,7-Diaza-spiro[2.5]oct-4-ylmethyl)-3-methyl-1H-pyrazolo[3,4-b]pyridin-6-yl]-3-fluoro-phenol], 98%; to `CNCCN1CC(C)(C)N(Cc2cc(-c3ccc(O)cc3)nc3[nH]nc(C)c23)CC1(C)C` [Example 85, 4-{3-Methyl-4-[2,2,5,5-tetramethyl-4-(2-methylamino-ethyl)-piperazin-1-ylmethyl]-1H-pyrazolo[3,4-b]pyridin-6-yl}-phenol], 101%.

For the molecule `Cc1n[nH]c2nc(-c3ccc(O)cc3F)cc(CN3CC(C)(C)NCC3C)c12` (stereo not shown) [Example 38, 3-Fluoro-4-[3-methyl-4-(2,5,5-trimethyl-piperazin-1-ylmethyl)-1H-pyrazolo[3,4-b]pyridin-6-yl]-phenol], the inhibition at 1.14 µM was 99%.

As to `Cc1n[nH]c2nc(-c3ccc(O)cc3F)cc(CN3CCNC[C@@H]3c3ccc(F)cc3)c12` [Example 105, 3-Fluoro-4-{4-[(S)-2-(4-fluoro-phenyl)-piperazin-1-ylmethyl]-3-methyl-1H-pyrazolo[3,4-b]pyridin-6-yl}-phenol], the inhibition at 1.14 µM was 100%. To `CC[C@]1(C)CNC(C)(C)CN1Cc1cc(-c2ccc(O)cc2F)nc2[nH]nc(C)c12` [Example 121, 4-[4-((R)-2-Ethyl-2,5,5-trimethyl-piperazin-1-ylmethyl)-3-methyl-1H-pyrazolo[3,4-b]pyridin-6-yl]-3-fluoro-phenol] belongs 100%; to `Cc1n[nH]c2nc(-c3ccc(O)cc3)cc(CN3CCN[C@H](CC(F)(F)F)C3)c12` [Example 91, 4-{3-Methyl-4-[(R)-3-(2,2,2-trifluoro-ethyl)-piperazin-1-ylmethyl]-1H-pyrazolo[3,4-b]pyridin-6-yl}-phenol], 81%.
